In one test the test system is HCT116. Put plainly: MTT antiproliferative assay, HCT116. Conditions: read-out: IC50 HCT116; MTT, 72 h. A general note: Formazan colour is commonly taken as a measure of viable cells.
The subject of the next test is VEGF. Put plainly: VEGF mRNA by real-time RT-PCR. The test is classed as cell-based. Particulars: hypoxia, VEGF/GAPDH. Here is the method: Figure 9 (A) The caged compounds (50 μM) inhibited the Hsp90 ATPase activity in a HTRF-based inhibition assay. (B) The IC50 values for the inhibition of Hsp90 ATPase by 8n, 8o and GA as detected by the HTRF Transcreener ADP kit. The test compounds were diluted to obtain a range of concentrations and incubated with Hsp90 and ATP. The amount of ADP generated was detected. (C) Western blots of the Hsp90 client proteins after HepG2 cells were treated with the indicated concentrations of 8n for 24 h. (D) The mRNA expression of VEGF was determined by real-time quantitative reverse-transcriptase polymerase chain reaction (RT-PCR) and analysed by the delta Ct method. The bars represent the means with standard error of the mean (SEM) and the fold change in the VEGF/GAPDH ratio relative to the vehicle-treated group. The different significance levels are indicated as **P < 0.05.
The influence of 8n on the degradation of Hsp90 client proteins was monitored by WB analysis. HepG2 cells were treated with different concentrations of 8n for 24 h. […] HIF-1α, as a key modulator of angiogenesis and an important client protein of Hsp90, was also examined, and the expression of HIF-1α decreased after treatment with 8n.
For orientation: Quantitative PCR measures a nucleic acid by following its amplification.

The next test has as its system HepG2. Put plainly: MTT antiproliferative assay, HepG2. Particulars: read-out: IC50 HepG2; MTT, 72 h.
Test [1] has as its system zebrafish embryos (intersegmental vessels). Put plainly: In vivo fluorescent zebrafish angiogenesis assay. Conditions: 24 h. The protocol: Zebrafish has been proposed as a valid alternative animal model for investigating angiogenesis. The effect of 8n on embryonic angiogenesis in zebrafish was evaluated.
Transgenic zebrafish (VEGFR2: GFP) embryos were supplied using the drug screening platform of the Shandong Academy of Sciences Institute; they were grown and maintained according to the same protocols. The screen was carried out in 24-well plates. Compounds were prepared initially as a 10 mg/mL stock solution in dimethyl sulfoxide (DMSO). The stock solution was diluted to the relevant assay concentration with fish water, and 0.5% DMSO served as a vehicle control. The embryos were distributed in 24-well plates, with 10 embryos placed in each well. Then, a diluted solution of each compound was added. The embryos were exposed to the compound solution and incubated at 28.5 °C. After 24 h, the zebrafish were anesthetized with 0.01% tricaine and imaged under a fluorescence microscope (Olympus, Inc.) equipped with a SZX16 microscope and a DP2-BSW digital camera (Olympus, Inc.). The animal experiments were performed in accordance with the approval of the Chinese Academy of Medical Sciences and the Biology Institute of Shandong Academy of Sciences. All studies were performed in accordance with the approved guidelines from the China Zebrafish Resource Center with the approved protocol number of 2012CB944504.

The subject of another test is HepG2 cells. Put plainly: Annexin V/PI apoptosis, flow cytometry. Format: cell-based, human. Conditions: 48 h. The protocol: First, the influence of 8n on the cytoskeleton was evaluated using morphological observations. After treatment with 8n, the morphological features of tumour cells changed greatly, and the changed characteristics included the rounding-up of cells, rough membrane surfaces, and more spherical or ovoid cytoplasmic fragments (Fig. 6A). However, the control group, which lacked compound 8n, had good growth. Next, we examined whether the morphological changes were the result of apoptosis induced by compound 8n using DAPI staining and FACScan.
Figure 6 (A) Morphological changes in cancer cells and nuclei. (B) 8n induced apoptosis in HepG2 cells. […] The cells were then were stained with DAPI and observed by fluorescence microscopy. […] (D) The percentages of early apoptotic and total apoptotic cells were quantified using flow cytometry. *p < 0.05; **p < 0.01. […] The expression levels of Caspase-3, Cleaved Caspase-3, Bax, Bcl-2, PARP and cleaved PARP were measured by Western blotting. […]
HepG2 cells were grown on glass coverslips and fixed in 4% paraformaldehyde. […] 8n-induced apoptosis was assessed using a fluorescence microscope and the Annexin V-FITC apoptosis Detection Kit (Beyotime Biotechnology, Shanghai, China) according to the manufacturer’s instructions. […] Stained cells were analysed with a FACScan analyser (argon laser, Becton Dickinson, USA). All data were analysed by using the FlowJo software.
For orientation: A flow cytometer gives signals particle by particle.

A further test deals with A549. Put plainly: MTT antiproliferative assay, A549. Particulars: read-out: IC50 A549; MTT, 72 h.

Each structure is given as a SMILES string.

As a reminder, the IC50 is the concentration that inhibits the measured activity by half.

Experimental for A549: (§1) The inhibition of tumour cell growth was measured by a modified tetrazolium (MTT) salt assay, as previously described[39]. Cells were cultured in a 96-well plate and treated with culture medium alone or different concentrations of the compounds. The cells were incubated for 72 h, and then, the MTT assay reagent was added. After a 4 h incubation, the formazan product was quantitated at 570 nm. The IC50 values (the concentrations that gave rise to 50% inhibition of cell viability) were calculated using GraphPad Prism 6 using a variable slope (four parameters).
Experimental for HCT116: as §1

Regarding `CC(C)=CCC12OC(C)(C)C3CC(C=C4C(=O)c5c(OC(=O)N6CCC(N7CCCCC7)CC6)cccc5OC431)C2=O` (centres unmarked) [Compound 8n], the IC50 in the test on HCT116 was found to be 970 ± 120 nM; with HepG2, 1320 ± 450 nM; in the test on A549, 7230 ± 560 nM. For the same compound, the “hypoxic induction of VEGF expression (mRNA)” value with VEGF is recorded as “substantially repressed”. Besides, the “formation of intersegmental vessels” value in test [1] (10 μg/ml or 5 μg/ml) is “considerably inhibited”; in test [1] (50 μg/ml), “completely blocked”. The apoptotic cells entry is given as “more than 11.89%” in the test on HepG2 cells (0.3 μM) and over 46.3% in the test on HepG2 cells (1 μM).

The values are drawn from PMC5073322, “Novel Natural Product-like Caged Xanthones Bearing a Carbamate Moiety Exhibit Antitumor Potency and Anti-Angiogenesis Activity In vivo” (Scientific Reports, 2016).
